We go through three compounds from patent US11345895B2, “Induction of arterial-type of hemogenic endothelium (AHE) and enhancement of T cell production from PSCs through overexpression of ETS factors or modulating MAPK/ERK signalling pathways” (Wisconsin Alumni Research Foundation, priority 2016, dated 2022).

Common to all, as to type: cell-based, human
For experiment [1], the system named is NOTCH signaling in iETS1 hESC cultures. Nature of the experiment: Hematopoiesis following ETS1 upregulation in the presence of NOTCH signaling blockade. Particulars: DOX-treated iETS1 hESC cultures; DAPT 10 μM, DLL4 blocking antibody 10 μg/ml. An excerpt:
To confirm the role of NOTCH activation in promoting definitive hematopoiesis by ETS1, we evaluated hematopoiesis following ETS1 upregulation in the presence of NOTCH signaling inhibitor DAPT, and DLL4 neutralizing antibodies (FIG. 4E).
(§1) HB-CFCs were detected as described previously^54. HB-CFCs were detected using the semisolid colony-forming serum-free medium (CF-SFM) containing 40% ES-Cult M3120 methylcellulose (2.5% solution in IMDM, Stem Cell Technologies), 25% StemSpan™ serum-free expansion medium (SFEM, Stem Cell Technologies), 25% human endothelial serum-free medium (ESFM, Invitrogen), 10% BIT 9500 supplement (Stem Cell Technologies), GlutaMAX™ (1/100 dilution, Invitrogen), Ex-Cyte™ (1/1000 dilution, Millipore), 100 μM MTG, 50 μg/ml ascorbic acid and 20 ng/ml FGF (Peprotech). Hematopoietic CFCs were detected using serum containing H4435 MethoCult with FGF, SCF, IL-3, IL-6 and EPO (Stem Cell Technologies).
Cells were analyzed using MACSQuant Analyzer (Miltenyi Biotec) and FlowJo software (Tree star).
Notch signaling was blocked by DAPT (γ-secretase inhibitor/GSI, 10 μM, Cayman Chemicals) or DLL4 blocking antibody (10 μg/ml, Creative BioLabs)

For experiment [2], the system named is iETS1-hESCs (H1, DOX-inducible ETS1 transgene). Put plainly: Primitive and definitive hematopoiesis from DOX-treated iETS1-hESCs (HB-CFC, HE, T cell, RBC cultures). Particulars: CD43+ cells subcultured on OP9-DLL4. Here is the method:
To define which type of hematopoiesis is affected by ETS1 overexpression, we evaluated the effect of DOX treatment on i) hemangioblast (HB) CFCs that reflect the primitive wave of hematopoiesis^37, 38 and ii) on T lymphocytes and β-hemoglobin-producing red blood cells that reflect definitive hematopoiesis (FIG. 3A)^37, 39. […] This effect was more profound when cultures were treated with DOX from day 0 through day 3 to ensure maximum ETS1 overexpression on day 3 (FIG. 3B and FIGS. 9B-9C). […] To determine the effect of ETS1 upregulation on T cell potential, we collected CD43^+ cells from DOX+ and DOX− cultures and subcultured on OP9−DLL4 stromal cells. […]
as §1, with “Technologies). […]” for “Technologies).”

Experiment [3] concerns DLL4+ arterial type HE from hPSCs. Nature of the experiment: Arterial HE specification in hESC differentiation cultures with modulation of MAPK/ERK signaling (flow cytometry). Particulars: differentiation cultures treated on days 3 through day 6; LY294002 2 μM, U0126 1 μM.
Experimental: (§2) To determine whether modulating MAPK/ERK signaling affects arterial specification of HE from hPSCs, we treated differentiation cultures on days 3 through day 6 with PI3K inhibitor LY294002, or MEK1 and MEK2 inhibitor U0126 (FIG. 6A).
H1 hESC line, the iETS1 H1 hESC line and the tdTomato H1 hESCs line were maintained on Matrigel™ in mTeSR1™ medium. Cells were passaged every 3-4 days using 0.5 mM EDTA in PBS. The hESC lines were differentiated on ColIV coated plate as previously described in details^26.
(§3) MAPK/ERK pathway was activated using LY294002 (2 μM, Cayman Chemicals) and was inhibited using U0126 (1 μM, Cayman Chemicals)
For experiment [4], the system named is CD235a/CD41a-CD45+ hematopoietic progenitors from hESCs. Put plainly: Hematopoietic progenitor production and hematopoietic CFC assay after modulation of MAPK/ERK signaling. As to conditions: ERK pathway activated (LY294002 2 μM) or inhibited (U0126 1 μM), days 3-6.
Experimental: as §2, §3
Experiment [5] has as its system T lymphoid potential of hESC cultures. Put plainly: T cell differentiation on OP9-DLL4 after LY294002 or U0126 treatment. As to conditions: cultures treated with LY294002 2 μM or U0126 1 μM.
Experimental: as §2
T cell differentiation of hESC-derived hematopoietic precursors was performed on the OP9−DLL4 in T cell differentiated medium consisting of α-MEM (Gibco) supplemented with 20% FBS (Hyclone), 5 ng/ml FLT3L, 5 ng/ml IL-7 and 10 ng/ml SCF (all from PeproTech) as described previously^26. […] Cultures were fed with complete media changes weekly.
as §3

Turning to `C[C@H](NC(=O)Cc1cc(F)cc(F)c1)C(=O)N[C@H](C(=O)OC(C)(C)C)c1ccccc1` [DAPT], the “effect of ETS1 upregulation on hematopoiesis (blood production and CFC potential)” value in experiment [1] is given as “abrogated effect”.

`C[C@H]1c2cccc(O)c2C(=O)C2=C(O)[C@]3(O)C(=O)C(C(N)=O)=C(O)[C@@H](N(C)C)[C@@H]3[C@@H](O)[C@@H]21` [DOX, doxycycline]: the “number of T lymphoid cells per 10^4 of CD43 cells, DOX+ versus DOX- cultures” value in experiment [2] is approximately 8 fold.

For `N#CC(=C(/N)Sc1ccccc1N)/C(C#N)=C(\N)Sc1ccccc1N` [U0126], the “production of DLL4+ arterial type HE, including the DLL4+CXCR4+ fraction” value in experiment [3] is on record as “almost completely abrogated formation”. The “production of multipotent CD235a/CD41a-CD45+ hematopoietic progenitors and CFC potential” value in experiment [4] is reported as “abrogated production”. Besides, in experiment [5], the T lymphoid potential result is “entirely abrogated”.
